From patent publication US20240277684A1, “BLOCKADE OF CHEMOKINE (C-C MOTIF) RECEPTOR 2 DURING FLUID RESUSCITATION” (University of South Florida, priority 2022, published 2024)

Experiments:
normal rats = assay: Effects on blood pressure in normal rats; type: in vivo, rat
Description: In vivo animal experiments. All procedures were performed in accordance with the National Institutes of Health Guidelines for Use of Laboratory Animals and were approved by the University of South Florida Institutional Animal Care and Use Committeee (IS00008139). Male Sprague-Dawley rats (300-400 g, Envigo, Indianapolis, IN, USA). were anesthetized with 1.7% isoflurane via nose-cone inhalation with the SomnoSuite anesthesia system (Kent Scientific, Torrington, CT, USA). […] The left femoral artery was isolated and cannulated with a 24-gauge peripheral intravenous catheter to allow for blood withdrawal, hemodynamic monitoring, drug administration, and fluid resuscitation. Hemodynamics were continuously monitored with the SurgivetV6400 blood pressure monitor (Med-Electronics, Beltsville, MD, USA), and blood pressures and heart rate were recorded at 1-10 min intervals. All animals were observed over a 10 min period to ensure hemodynamic stability before start of the experiments. All experiments were performed randomized in alternating order. To test the effects of INCB3284 in normal rats, animals received repetitive injections of 1 mL of Lactated Ringer's solution (LR, vehicle) in 10 min intervals (n=3) or increasing doses of the drug (0.55, 0.82, 1.4 and 2.75 μmol/kg INCB3284) in 1 mL LR in 10 min intervals (n=3).

[1] = system: isolated rat mesenteric arteries; assay: Pressure myography with isolated rat mesenteric arteries; details: 10 μM, 15 min pre-exposure, vs vehicle
[2] = increasing doses 0.55, 0.82, 1.4 and 2.75 μmol/kg in 1 mL LR, 10 min intervals

## COc1ccc([C@]2(O)CC[C@@H](N3CC[C@@H](NC(=O)CNC(=O)c4cccc(C(F)(F)F)c4)C3)CC2)cn1 [INCB3284]
Normal rats; [2]
  MAP during the observation period: remained constant
  acute effects on blood pressure: did not show acute effects on blood pressure
Normal rats; increasing doses 0.55-2.75 μmol/kg, not significantly different from zero (p=0.43)
  slope of the MAP linear regression line: −0.011 mmHg/min
[1]
  artery diameter: did not alter artery diameter
  phenylephrine-induced vasoconstriction: did not alter artery diameter or affect phenylephrine-induced vasoconstriction
